Assay results as given in patent US20240316014A1, “METHOD FOR TREATING DEMYELINATING CONDITIONS” (ACADEMIA SINICA, priority 2023, published 2024).
Where two headings read alike, the source gives them in different places.

Key:
[1] = system: cuprizone-induced demyelination; settings: cited from earlier work
[2] = system: human primary fibroblasts (CRL2097); assay: Morphology screening for conversion of fibroblasts into oligodendrocyte-like cells; format: cell-based; settings: for morphological changes in fibroblasts (dendritic and dome-shaped): human fibroblasts CRL2097, phase-contrast, vs solvent control (FIG. 1A)
Procedure: The human normal foreskin skin fibroblast primary cells (CRL-2097) were obtained from the ATCC. CRL-2097 cells were cultured at 37° C. with 5% CO2 in high glucose Dulbecco's Modified Eagle's Medium (HG-DMEM) (Life Technologies) supplemented with 10% fetal bovine serum (FBS) (Hyclone). Cell viability was determined by trypan blue staining. All of the cultures were free of mycoplasma. This study was approved by the Academia Sinica ethics committee (IRB number: AS-IRB-BM-17008, AS-IRB-BM-20038). Cells (1×10^4 per well) were plated on 24-well plates. Cells were cultured in HG-DMEM (Life Technologies) supplemented with 10% fetal bovine serum (FBS) (Hyclone) for 2 days. Then the medium was replaced with DMEM/F12 (Gibco) with 1% N2 supplement, 1% B27 supplement (all from Life Technologies), 20 ng/ml Platelet-Derived Growth Factor AA (PDGF-AA), 20 ng/ml Epidermal Growth Factor (EGF), 20 ng/mL Basic Fibroblast Growth Factor (bFGF), 20 ng/ml Neurotrophin-3 (NT3) (all from Peprotech). Then the cells were treated with 3 mM valproic acid (Tocris) for 2 days, 10 μM Y27632 (LC Laboratories), 10 μM SU9516 (R&D Systems), and 10 μM Forskolin (FSK) (Tocris) for 1 day. The reagent is listed in supplementary Table S1 and Table S2. To find out which chemicals could convert fibroblasts into oligodendrocyte-like cells, we screened chemically-treated cells based on morphological changes that included the formation of a dendritic morphology of neural lineage cells and the dome-shaped morphology of the cell bodies of oligodendrocytes. In a preliminary screen, two chemicals, Y27632 and SU9516, were identified that may be involved in triggering the generation of oligodendrocyte-like cells from human primary fibroblasts (CRL2097). […] To characterize the induced oligodendrocyte-like cells, we performed immunofluorescence staining to analyze the expression of oligodendrocyte-specific markers. […] Next, to optimize the two-chemical cocktail, we performed an additional high-throughput screen using a chemical library of over 1,500 molecules purchased from Selleckchem®. […]

[3] = system: human primary fibroblasts (CRL2097); assay: Immunofluorescence staining of oligodendrocyte-specific markers in chemically treated fibroblasts; format: cell-based; settings: compared to the solvent control group (FIG. 1B)
Procedure: Cells (1×10^4 per well) were plated on 24-well plates. Cells were cultured in HG-DMEM (Life Technologies) supplemented with 10% fetal bovine serum (FBS) (Hyclone) for 2 days. Then the medium was replaced with DMEM/F12 (Gibco) with 1% N2 supplement, 1% B27 supplement (all from Life Technologies), 20 ng/ml Platelet-Derived Growth Factor AA (PDGF-AA), 20 ng/ml Epidermal Growth Factor (EGF), 20 ng/mL Basic Fibroblast Growth Factor (bFGF), 20 ng/ml Neurotrophin-3 (NT3) (all from Peprotech). Then the cells were treated with 3 mM valproic acid (Tocris) for 2 days, 10 μM Y27632 (LC Laboratories), 10 μM SU9516 (R&D Systems), and 10 μM Forskolin (FSK) (Tocris) for 1 day. The reagent is listed in supplementary Table S1 and Table S2. Cells were fixed with 4% formaldehyde for 15 minutes at room temperature, and washed once with 1×Phosphate Buffered Saline (PBS). Cells were permeabilized with 0.3% Triton X-100 for 5 minutes, washed twice with 1×PBS, and blocked in 2% Bovine Serum Albumin (BSA) in PBS for 30 minutes. […] Fluorescence was analyzed using a fluorescence microscope (Axiovert 200 M, Zeiss).

| SMILES | morphological changes in fibroblasts (dendritic and dome-shaped) [2] | expression of oligodendrocyte-specific marker 4 (O4) by immunofluorescence [3] | also measured |
| --- | --- | --- | --- |
| CNC(=O)c1cc(Oc2ccc3nc(N[C@@H]4CCCC[C@H]4O)sc3c2)ccn1 [BLZ945] | – | – | remyelination ([1]; 5-week cuprizone-induced model, ref [34]): enhances remyelination |
| CC(C)(C)[C@]1(O)CC2OC(=O)CC23C(=O)OC2OC(=O)[C@H](O)C231 (some centres unmarked) [Bilobalide] | – | – | remyelination ([1]; cuprizone-induced 6-week model, ref [36]): promote remyelination |
| COc1ccc2c(c1)c(CC(=O)O)c(C)n2C(=O)c1ccc(Cl)cc1 [Indomethacin] | – | – | remyelination ([1]; 10-week cuprizone-induced demyelination model, ref [33]): promote remyelination |
| COc1ccc2c(c1)/C(=C/c1cnc[nH]1)C(=O)N2 [SU9516, (Z)-3-((1H-imidazol-5-yl)methylene)-5-methoxyindolin-2-one] | induced morphological changes | higher 04 expression | – |
| CCCC(CCC)C(=O)O [VPA, valproic acid] | – | – | conversion efficiency, VPA pretreatment vs co-treatment with YSF ([2]; VPA 2 days then YSF 1 day, or VPA co-treated with YSF 1 day (FIG. 1D)): only pretreatment could improve the conversion efficiency |
| C[C@@H](N)[C@H]1CC[C@H](C(=O)Nc2ccncc2)CC1 [Y27632, Trans-4-[(1R)-1-Aminoethyl]-N-(4-pyridinyl)cyclohexanecarboxamide] | induced morphological changes | higher 04 expression | – |
